Where “and” joins values, the source holds several entries; their conditions need not be identical. Equal entries are not always repeated. Records with an inconclusive call do not appear. Peptide text beside a SMILES is read from it. * marks the point of attachment. Trt = c1ccc(C(c2ccccc2)(c2ccccc2)*)cc1; Cbz = O=C(OCc1ccccc1)*
Test system: nude mice, LX-1 lung xenograft intrarenal, tumor weight T/C
Test: NCI In Vivo Anticancer Drug Screen. Data for tumor model Human Lung LX-1 Xenograft (intrarenal inoculation) in NU/NU Swiss (nude) mice
Conditions: endpoint: mean tumor weight change, higher = larger tumour
Procedure, shortened: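 In vivo, transplantable tumor; compound vs vehicle arms; tumor size measured; value = T/C.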

[1] = dose: 100.0 mg/kg/injection, schedule: Q01DX010 (sc), vehicle: saline
[2] = dose: 25.0 mg/kg/injection, schedule: Q04DX003 (sc), vehicle: saline
[3] = dose: 50.0 mg/kg/injection, schedule: Q04DX003 (sc), vehicle: saline
[4] = dose: 100.0 mg/kg/injection, schedule: Q04DX003 (sc), vehicle: saline
[5] = dose: 200.0 mg/kg/injection, schedule: Q04DX003 (sc), vehicle: saline
[6] = dose: 100.0 mg/kg/injection, schedule: Q04DX003 (sc), vehicle: saline with Tween-80
[7] = dose: 800.0 mg/kg/injection, schedule: Q04DX003 (sc), vehicle: saline with Tween-80
[8] = dose: 300.0 mg/kg/injection, schedule: Q04DX003 (sc), vehicle: saline with Tween-80
[9] = dose: 600.0 mg/kg/injection, schedule: Q04DX003 (sc), vehicle: saline with Tween-80
[10] = dose: 1200.0 mg/kg/injection, schedule: Q04DX003 (sc), vehicle: saline with Tween-80
[11] = dose: 2400.0 mg/kg/injection, schedule: Q04DX003 (sc), vehicle: saline with Tween-80
[12] = dose: 6.25 mg/kg/injection, schedule: Q01DX010 (sc), vehicle: saline with Tween-80
[13] = dose: 25.0 mg/kg/injection, schedule: Q01DX010 (sc), vehicle: saline with Tween-80

For `O=C(O)C(O)C(O)C1[O][Sb][O]C1C(=O)O` (stereo not given), the T/C (dose: 37.5 mg/kg/injection, schedule: Q04DX003 (sc), vehicle: saline) was 106 % of control and the T/C (dose: 75.0 mg/kg/injection, schedule: Q04DX003 (sc), vehicle: saline) was 105 % of control.

`CC(=O)Oc1ccccc1O` was tested, and the T/C (dose: 150.0 mg/kg/injection, schedule: Q04DX003 (sc), vehicle: saline + Tween-80 + alcohol) was 105 % of control, the T/C (dose: 300.0 mg/kg/injection, schedule: Q04DX003 (sc), vehicle: saline + Tween-80 + alcohol) was 101 % of control and the T/C (dose: 600.0 mg/kg/injection, schedule: Q04DX003 (sc), vehicle: saline + Tween-80 + alcohol) was 89 % of control. The T/C (dose: 1200.0 mg/kg/injection, schedule: Q04DX003 (sc), vehicle: saline + Tween-80 + alcohol) was 82 % of control.

`COc1cccc2c1C(=O)c1c(O)c3c(c(O)c1C2=O)CC(O)(/C(C)=N/NC(=O)CCC(=O)N/N=C(\C)C1(O)Cc2c(O)c4c(c(O)c2C(OC2CC(N)C(O)C(C)O2)C1)C(=O)c1c(OC)cccc1C4=O)CC3OC1CC(N)C(O)C(C)O1` (stereo not given) was tested, and the T/C (dose: 6.25 mg/kg/injection, schedule: Q01DX010 (sc), vehicle: water) was 21 % of control (2×) and 27 % of control and the T/C (dose: 12.5 mg/kg/injection, schedule: Q01DX010 (sc), vehicle: water) was 31 % of control and 46 % of control and 51 % of control.

In the case of `O=C(NP(=O)(N1CC1)N1CC1)c1cc(I)ccc1I`, the T/C (dose: 50.0 mg/kg/injection, schedule: Q01DX010 (sc), vehicle: saline) is reported as 73 % of control and the T/C [1] is reported as 54 % of control.

In the case of `Cc1c2ccc3ccccc3c2c[n+]2ccccc12`, the T/C (dose: 4.69 mg/kg/injection, schedule: Q04DX003 (sc), vehicle: Klucel (hydroxypropylcellulose) (HPC)) is reported as 110 % of control, the T/C (dose: 9.38 mg/kg/injection, schedule: Q04DX003 (sc), vehicle: Klucel (hydroxypropylcellulose) (HPC)) is reported as 87 % of control and the T/C (dose: 18.75 mg/kg/injection, schedule: Q04DX003 (sc), vehicle: Klucel (hydroxypropylcellulose) (HPC)) is reported as 72 % of control.

For `O=C(O)CC(=O)O.[NH-]CC[NH-].[Pt+2]`, the T/C (dose: 12.5 mg/kg/injection, schedule: Q01DX010 (sc), vehicle: dextrose) was 100 % of control, the T/C (dose: 25.0 mg/kg/injection, schedule: Q01DX010 (sc), vehicle: dextrose) was 74 % of control and the T/C (dose: 50.0 mg/kg/injection, schedule: Q01DX010 (sc), vehicle: dextrose) was 74 % of control.

With `Oc1ccc(O)cc1` the T/C [2] was 102 % of control, the T/C [3] was 85 % of control and 98 % of control and the T/C [4] was 92 % of control and 93 % of control. For the same compound, the T/C [5] was 109 % of control.

`CC1(C)COCN1COC1CCCCC1` was tested, and the T/C [6] was 76 % of control, the T/C (dose: 200.0 mg/kg/injection, schedule: Q04DX003 (sc), vehicle: saline with Tween-80) was 119 % of control and the T/C (dose: 400.0 mg/kg/injection, schedule: Q04DX003 (sc), vehicle: saline with Tween-80) was 68 % of control. For the same compound, the T/C [7] was 110 % of control.

With `CN1C(=O)CC2(CCN(CCCC(=O)c3ccc(F)cc3)CC2)C1=O` the T/C (dose: 18.75 mg/kg/injection, schedule: Q04DX003 (sc), vehicle: suspension in saline) was 33 % of control, the T/C (dose: 75.0 mg/kg/injection, schedule: Q04DX003 (sc), vehicle: suspension in saline) was 85 % of control and the T/C (dose: 150.0 mg/kg/injection, schedule: Q04DX003 (sc), vehicle: suspension in saline) was 77 % of control.

For `[O-][n+]1c(CN2CCCCC2)nc2cccc3c2c1-c1ccccc1-3`, the T/C [8] was 82 % of control, the T/C [9] was 68 % of control and the T/C [10] was 77 % of control. For the same compound, the T/C [11] was 109 % of control.

For `CCCCCCC(=O)CC(SCC)c1ccccc1Cl` (stereo not given), the T/C [8] was 82 % of control, the T/C [9] was 96 % of control and the T/C [10] was 92 % of control. The T/C [11] was 72 % of control.

For `O=NN(CCCl)C(=O)NC1CCCCC1`, the T/C (dose: 4.0 mg/kg/injection, schedule: Q01DX010 (ip), vehicle: saline with Tween-80) was 101 % of control, the T/C (dose: 8.0 mg/kg/injection, schedule: Q01DX010 (ip), vehicle: saline with Tween-80) was 19 % of control and the T/C (dose: 8.0 mg/kg/injection, schedule: Q01DX010 (sc), vehicle: saline with Tween-80) was 112 % of control. The T/C (dose: 8.0 mg/kg/injection, schedule: Q04DX003 (sc), vehicle: carboxymethylcellulose (CMC)) was 64 % of control and 65 % of control, the T/C (dose: 12.5 mg/kg/injection, schedule: Q04DX003 (sc), vehicle: Klucel (hydroxypropylcellulose) (HPC)) was 35 % of control and the T/C (dose: 13.33 mg/kg/injection, schedule: Q04DX003 (ip), vehicle: saline with Tween-80) was 236 % of control. For the same compound, the T/C (dose: 16.0 mg/kg/injection, schedule: Q01DX010 (ip), vehicle: saline with Tween-80) was 11 % of control, the T/C (dose: 16.0 mg/kg/injection, schedule: Q01DX010 (sc), vehicle: saline with Tween-80) was 79 % of control and the T/C (dose: 26.65 mg/kg/injection, schedule: Q04DX003 (ip), vehicle: saline with Tween-80) was 152 % of control. For the same compound, the T/C (dose: 32.0 mg/kg/injection, schedule: Q01DX010 (sc), vehicle: saline with Tween-80) was -16 % of control, the T/C (dose: 32.0 mg/kg/injection, schedule: Q04DX003 (sc), vehicle: carboxymethylcellulose (CMC)) was 45 % of control and 52 % of control and the T/C (dose: 50.0 mg/kg/injection, schedule: Q04DX003 (sc), vehicle: Klucel (hydroxypropylcellulose) (HPC)) was 119 % of control. For the same compound, the T/C (dose: 53.33 mg/kg/injection, schedule: Q04DX003 (ip), vehicle: saline with Tween-80) was -38 % of control and the T/C (dose: 64.0 mg/kg/injection, schedule: Q04DX003 (sc), vehicle: carboxymethylcellulose (CMC)) was 10 % of control and 29 % of control.

With `Brc1c(NC2=NCCN2)ccc2nccnc12` the T/C [2] was 75 % of control, the T/C [3] was 55 % of control and the T/C [4] was 79 % of control. For the same compound, the T/C [5] was 69 % of control.

`COC(=O)C(CSC(c1ccccc1)(c1ccccc1)c1ccccc1)NC(=O)C(CC(N)=O)NC(=O)OCc1ccccc1` (stereo not drawn) (Cbz-Asn-Cys(Trt)-OMe; configuration not given here) was tested, and the T/C (dose: 300.0 mg/kg/injection, schedule: Q04DX003 (sc), vehicle: distilled water + Tween-80) was 79 % of control, the T/C (dose: 1200.0 mg/kg/injection, schedule: Q04DX003 (sc), vehicle: distilled water + Tween-80) was 105 % of control and the T/C (dose: 2400.0 mg/kg/injection, schedule: Q04DX003 (sc), vehicle: distilled water + Tween-80) was 116 % of control.

In the case of `C=C1C(=O)OC2CC(C)C3C4OC4C(O)C3(C)C(O)C12` (stereo not given), the T/C [6] is reported as 97 % of control and the T/C [7] is reported as 75 % of control.

With `OCC1OC(n2cnc3c(Cl)ncnc32)C(O)C1O` (stereo not given) the T/C [1] was 74 % of control, the T/C (dose: 200.0 mg/kg/injection, schedule: Q01DX010 (sc), vehicle: saline) was 96 % of control and 103 % of control and the T/C (dose: 400.0 mg/kg/injection, schedule: Q01DX010 (sc), vehicle: saline) was 80 % of control and 99 % of control. For the same compound, the T/C (dose: 800.0 mg/kg/injection, schedule: Q01DX010 (sc), vehicle: saline) was 112 % of control.

In the case of `OCCN1CCN(CC/C=C2/c3ccccc3Sc3ccc(C(F)(F)F)cc32)CC1`, the T/C (dose: 10.0 mg/kg/injection, schedule: Q01DX010 (sc), vehicle: saline) is reported as 54 % of control, the T/C (dose: 20.0 mg/kg/injection, schedule: Q01DX010 (sc), vehicle: saline) is reported as 45 % of control and the T/C (dose: 40.0 mg/kg/injection, schedule: Q01DX010 (sc), vehicle: saline) is reported as 29 % of control.

For `OCCO`, the T/C (dose: 8.0 % in 0.5 ml injection vol, schedule: Q04DX003 (sc), vehicle: water) was 121 % of control and the T/C (dose: 16.0 % in 0.5 ml injection vol, schedule: Q04DX003 (sc), vehicle: water) was 108 % of control.

In the case of `Cc1c2c(ccc3ccccc32)c[n+]2ccccc12`, the T/C (dose: 3.13 mg/kg/injection, schedule: Q01DX010 (sc), vehicle: saline) is reported as 59 % of control, the T/C (dose: 6.25 mg/kg/injection, schedule: Q01DX010 (sc), vehicle: saline) is reported as 83 % of control and the T/C (dose: 12.5 mg/kg/injection, schedule: Q01DX010 (sc), vehicle: saline) is reported as 38 % of control.

In the case of `CCCCCCCC(=O)[O][Hg][CH2]C1COC([CH2][Hg][O]C(=O)CCCCCCC)CO1` (stereo not given), the T/C [12] is reported as 224 % of control, the T/C [13] is reported as 106 % of control and the T/C (dose: 50.0 mg/kg/injection, schedule: Q01DX010 (sc), vehicle: saline with Tween-80) is reported as 75 % of control and 79 % of control. For the same compound, the T/C (dose: 100.0 mg/kg/injection, schedule: Q01DX010 (sc), vehicle: saline with Tween-80) was 61 % of control, the T/C (dose: 200.0 mg/kg/injection, schedule: Q01DX010 (sc), vehicle: saline with Tween-80) was 42 % of control and the T/C (dose: 400.0 mg/kg/injection, schedule: Q01DX010 (sc), vehicle: saline with Tween-80) was 24 % of control.

In the case of `O=[Te]=O`, the T/C (dose: 12.5 mg/kg/injection, schedule: Q04DX003 (sc), vehicle: suspension in saline) is reported as 150 % of control.

For `C=CC(=O)N1CN(C(=O)C=C)CN(C(=O)C=C)C1`, the T/C [12] was 92 % of control, the T/C (dose: 12.5 mg/kg/injection, schedule: Q01DX010 (sc), vehicle: saline with Tween-80) was 110 % of control and the T/C [13] was 67 % of control.
